# Results taken from patent publication US9725490B2, “ERAP1-derived peptide and use thereof” (TOKUSHIMA UNIVERSITY, priority 2011, dated 2017).
# How the values were obtained:
# Format in all cases: cell-based, human
# [1] = test system: KPL3 cells; experiment: E2-independent cell proliferation, KPL-3C; conditions: 10 μM every 24 hours, at 48 hours
# Method: (§1) FIG. 16 is a diagram illustrating the influence of the ERAP1-peptide on proliferation of E2-independent breast cancer cells. […] Each of the cells was treated with 10 μM ERAP1-peptide for 24 hours (MCF-7), for 48 hours (KPL-3C) or for 96 hours (ZR-75-1 and T47D).
# (§2) MCF-7 cells or ZR-75-1 cells were seeded in 2×10^4/well, and KPL-3C cells were seeded in 1×10^4/well on a 48-well plate, and stood in a CO2 incubator for 24 hours. Then, for MCF-7 cells, the culture medium was exchanged with DMEM/F12 culture medium containing 10% FBS (Nichirei Biosciences, Tokyo, Japan), 1% antibiotic/antimycotic solution (Invitrogen), 0.1 mM NEAA48 (invitrogen), 1 mM sodium pyruvate and 10 μg/ml insulin (Sigma, St. Louis, Mo., USA) and not containing phenol red, and the cells were further pre-cultured for 24 hours. On the other hand, for ZR-75-1 cells and KPL-3C cells, the culture media were exchanged with RPMI culture media containing 10% FBS and 1% antibiotic/antimycotic solution and not containing phenol red, and the cells were further pre-cultured for 24 hours. The supernatant was removed, and then 200 μl of the ERAP1-peptide in each concentration or tamoxifen as a positive control was added, respectively and the mixture was reacted for 24 hours. […] Then, 100 μl from each well was moved to a 96-well plate, and the absorbance at 450 nm was measured with a microplate reader.
# [2] = test system: SK-BR-3 cells; experiment: Proliferation of ERα negative SK-BR-3 cells; conditions: 24 hours and 48 hours
# Method: FIG. 40 is a diagram illustrating the results of MTT assay by which proliferation suppression effect of the ERAP1-peptide in ERα negative breast cancer cell lines, SK-BR-3 cells was evaluated. SK-BR-3 cells were treated with the ERAP1-peptide (Peptide) or the ERAP1-scramble peptide (scrPeptide) for 24 hours or for 48 hours.
# Cell proliferation assay was performed using Cell-Counting Kit-8 (CCK-8, Dojindo, Kumaamoto, Japan). The cells were harvested, and plated in 2×10^4 cells/well on a 48-well plate, and maintained in a humidified incubator (37° C.). 10 fold-diluted CCK-8 solution was added at indicated time points and the cells were incubated for 1 hour. Then, the absorbance at 450 nm was measured and the number of living cells was calculated.
# [3] = test system: PHB2/REA (Ser39) phosphorylation; experiment: Ser39 phosphorylation of PHB2/REA, MCF-7; conditions: 10 μM
# Method: FIG. 26-1 is a diagram illustrating the results of evaluations for the phosphorylation in nuclear-translocated Ser39 of PHB2/REA. […] MCF-7 cells were treated with 10 μM ERAP1-peptide. Then, immediately, the cells were stimulated with 10 nM E2 for 24 hours. The cells were fractionated into cytoplasm and nuclear fractions by specific gravity centrifugation. Then, each fraction was immunoprecipitated with anti-PHB2/REA antibody. Then, the cells were lysed. Then, the immunoprecipitated protein and the cell lysate were subjected to immunoblotting analysis with the antibodies shown in the figure. […] Then, immediately, the cells were temporally stimulated with 10 nM E2. Each cell lysate was subjected to immunoblotting analysis with an anti-PHB2/REA antibody and an anti-phosphorylation PHB2/REA (S39) antibody. […] MCF-7 cells were treated with the ERAP1-peptide and λ-phosphatase (400 U) in the presence of 10 nM E2 for 24 hours. After the immobilization, the cells were subjected to immunofluorescent staring. […]
# MCF-7 cells were seeded in an 8-well chamber (Laboratory-Tek II Chamber Slide System, Nalgen Nunc International, Naperville, Ill., USA) in 5×10^4 cells/well, and cultured under estrogen-free condition for 24 hours. […] The fluorescence image was obtained under Olympus IX71 microscope (Tokyo, Japan).
# [4] = test system: ZR-75-1, HCC1500, BT474, YMB-1, KPL-1, HBC4; experiment: E2-dependent cell proliferation assay, other ERα/ERAP1-positive breast cancer cell lines; conditions: 10 μM, 10 nM E2 24 hours
# Method: FIG. 7-2 is a diagram illustrating that ERAP1-peptide treatment suppresses ERα-dependent cell proliferation of breast cancer cell lines. […] Various ERα/ERAP1-positive breast cancer cell lines shown in the figure were treated with 10 μM of the ERAP1-peptide or the scramble peptide or 10 nM tamoxifen. Then, immediately, the cells were stimulated with 10 nM E2 for 24 hours.
# Using Cell-Counting Kit-8 (CCK-8, Dojindo, Kumamoto, Japan), the cell proliferation assay was performed. The cells were harvested, and plated in 2×10^4 cells/well on a 48-well plate, and maintained at 37° C. in a humidified incubator. At the indicated time points, the cells were added with a CCK-8 solution diluted to 1:10, and incubated for 1 hour. Then, the absorbance at 450 nm was measured and the number of living cells in each well was calculated.
# [5] = test system: ZR75-1 cells; experiment: E2-independent cell proliferation, ZR-75-1; conditions: 10 μM every 24 hours, at 96 hours
# Method: as §1, §2
smiles,measurement,setting,value
CSCC[C@H](NC(=O)[C@H](CCC(N)=O)NC(=O)[C@H](CCCNC(=N)N)NC(=O)[C@H](CCCNC(=N)N)NC(=O)[C@H](CCCNC(=N)N)NC(=O)[C@H](CCCNC(=N)N)NC(=O)[C@H](CCCNC(=N)N)NC(=O)[C@H](CCCNC(=N)N)NC(=O)[C@H](CCCNC(=N)N)NC(=O)[C@H](CCCNC(=N)N)NC(=O)[C@H](CCCNC(=N)N)NC(=O)[C@H](CCCNC(=N)N)NC(=O)[C@@H](N)CCCNC(=N)N)C(=O)N[C@@H](CC(C)C)C(=O)N[C@@H](CO)C(=O)N[C@@H](CC(=O)O)C(=O)N[C@@H](CC(C)C)C(=O)N[C@H](C(=O)N[C@@H](CC(C)C)C(=O)N[C@@H](CCC(N)=O)C(=O)N[C@@H](CC(C)C)C(=O)N[C@@H](CCCNC(=N)N)C(=O)N[C@@H](CCC(N)=O)C(=O)N[C@@H](CCCNC(=N)N)C(=O)O)[C@@H](C)O [ERAP1-peptide],cell proliferation in the absence of E2,[1],significant cell proliferation suppression effect
same,cell proliferation,[2],had suppression effect on the cell proliferation in dose-dependent manner both at 24 hours and 48 hours
same,"E2-dependent Ser phosphorylation of PHB2/REA, successive change",[3]; 10 nM E2,recognized continuously from 1 hour to 24 hours
same,phosphorylation of Ser39 of nuclear-translocated PHB2/REA,[3]; 10 nM E2 24 hours,recognized for the phosphorylation of Ser39
same,E2-dependent cell proliferation,[4],remarkable E2-dependent proliferation suppression effect in all of the cells
same,cell proliferation in the absence of E2,[5],significant cell proliferation suppression effect
